From PubChem BioAssay (NCI)
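1) Cells in 96-well plates. 2) Compound, 48 h, 5 concentrations. 3) Linear interpolation between surrounding doses. 4) Unreached endpoint = highest concentration. TGI: total growth inhibition.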

Assays:
Test in all cases: NCI tumour cell line growth inhibition, 48 h
[1] = system: 786-0 renal
[2] = system: A498 renal
[3] = system: A549 NSCLC
[4] = system: ACHN renal
[5] = system: BT-549 breast
[6] = system: CAKI-1 renal
[7] = system: CCRF-CEM leukemia
[8] = system: COLO 205 colon
[9] = system: DU-145 prostate
[10] = system: EKVX NSCLC
[11] = system: HCC-2998 colon
[12] = system: HCT-116 colon
[13] = system: HCT-15 colon
[14] = system: HL-60(TB) leukemia
[15] = system: HOP-62 NSCLC
[16] = system: HOP-92 NSCLC
[17] = system: HS 578T breast
[18] = system: HT29 colon
[19] = system: IGROV1 ovarian
[20] = system: K-562 leukemia
[21] = system: KM12 colon
[22] = system: LOX IMVI melanoma
[23] = system: M14 melanoma
[24] = system: MALME-3M melanoma
[25] = system: MCF7 breast
[26] = system: MDA-MB-231 breast
[27] = system: MDA-MB-435
[28] = system: MDA-N
[29] = system: MOLT-4 leukemia
[30] = system: NCI-H23 lung
[31] = system: NCI-H460 lung
[32] = system: NCI-H522 lung
[33] = system: NCI/ADR-RES ovarian
[34] = system: OVCAR-3 ovarian
[35] = system: OVCAR-5 ovarian
[36] = system: OVCAR-8 ovarian
[37] = system: PC-3 prostate
[38] = system: RPMI-8226 leukemia
[39] = system: RXF 393 renal
[40] = system: SF-268 CNS
[41] = system: SF-295 CNS
[42] = system: SF-539 CNS
[43] = system: SK-MEL-2 melanoma
[44] = system: SK-MEL-28 melanoma
[45] = system: SK-MEL-5 melanoma
[46] = system: SK-OV-3 ovarian
[47] = system: SN12C renal
[48] = system: SNB-19 CNS
[49] = system: SNB-75 CNS
[50] = system: SR leukemia
[51] = system: SW-620 colon
[52] = system: T-47D breast
[53] = system: TK-10 renal
[54] = system: U251 CNS
[55] = system: UACC-257 melanoma
[56] = system: UACC-62 melanoma
[57] = system: UO-31 renal
[58] = system: NCI-H226 lung
[59] = system: OVCAR-4 ovarian

Compound: CO[C@]12S[C@@H]3CCCC[C@@]31C(C)(C)C(=O)N2c1ccccc1
- TGI [1]: > 100 µM
- TGI [2]: > 100 µM
- TGI [3]: > 100 µM
- TGI [4]: > 100 µM
- TGI [5]: > 100 µM
- TGI [6]: > 100 µM
- TGI [7]: > 100 µM
- TGI [8]: 44 µM
- TGI [9]: > 100 µM
- TGI [10]: > 100 µM
- TGI [11]: > 100 µM
- TGI [12]: > 100 µM
- TGI [13]: > 100 µM
- TGI [14]: 42.5 µM
- TGI [15]: 53.5 µM
- TGI [16]: > 100 µM
- TGI [17]: > 100 µM
- TGI [18]: > 100 µM
- TGI [19]: > 100 µM
- TGI [20]: > 100 µM
- TGI [21]: > 100 µM
- TGI [22]: > 100 µM
- TGI [23]: > 100 µM
- TGI [24]: > 100 µM
- TGI [25]: > 100 µM
- TGI [26]: > 100 µM
- TGI [27]: > 100 µM
- TGI [28]: > 100 µM
- TGI [29]: 78.2 µM
- TGI [30]: > 100 µM
- TGI [31]: > 100 µM
- TGI [32]: > 100 µM
- TGI [33]: 78.8 µM
- TGI [34]: 38.5 µM
- TGI [35]: > 100 µM
- TGI [36]: > 100 µM
- TGI [37]: 96.7 µM
- TGI [38]: 73 µM
- TGI [39]: > 100 µM
- TGI [40]: > 100 µM
- TGI [41]: 51.1 µM
- TGI [42]: 28.6 µM
- TGI [43]: 95.5 µM
- TGI [44]: > 100 µM
- TGI [45]: 43.3 µM
- TGI [46]: 76.8 µM
- TGI [47]: 56.7 µM
- TGI [48]: > 100 µM
- TGI [49]: > 100 µM
- TGI [50]: > 100 µM
- TGI [51]: > 100 µM
- TGI [52]: > 100 µM
- TGI [53]: > 100 µM
- TGI [54]: > 100 µM
- TGI [55]: > 100 µM
- TGI [56]: > 100 µM
- TGI [57]: > 100 µM

Compound: CC(=O)Nc1cc2cc(NS(=O)(=O)c3ccc(Cl)c(Cl)c3)ccc2oc1=O
- TGI [1]: 32.4 µM
- TGI [2]: 40.7 µM
- TGI [3]: > 100 µM
- TGI [4]: > 100 µM
- TGI [5]: > 100 µM
- TGI [6]: 56.4 µM
- TGI [7]: > 100 µM
- TGI [8]: 93.7 µM
- TGI [9]: > 100 µM
- TGI [10]: > 100 µM
- TGI [11]: > 100 µM
- TGI [12]: 82.2 µM
- TGI [13]: > 100 µM
- TGI [14]: > 100 µM
- TGI [15]: 46.7 µM
- TGI [16]: 60.5 µM
- TGI [17]: 59.7 µM
- TGI [18]: > 100 µM
- TGI [19]: > 100 µM
- TGI [20]: > 100 µM
- TGI [21]: 92.3 µM
- TGI [22]: 44.3 µM
- TGI [23]: > 100 µM
- TGI [25]: 47.7 µM
- TGI [26]: 46.2 µM
- TGI [27]: > 100 µM
- TGI [28]: > 100 µM
- TGI [29]: > 100 µM
- TGI [58]: > 100 µM
- TGI [30]: > 100 µM
- TGI [31]: > 100 µM
- TGI [32]: 63.6 µM
- TGI [33]: > 100 µM
- TGI [34]: > 100 µM
- TGI [59]: > 100 µM
- TGI [35]: > 100 µM
- TGI [36]: 31.6 µM
- TGI [37]: 51.1 µM
- TGI [38]: > 100 µM
- TGI [39]: 25.6 µM
- TGI [40]: 61.7 µM
- TGI [41]: 44.5 µM
- TGI [42]: 56.1 µM
- TGI [43]: > 100 µM
- TGI [44]: > 100 µM
- TGI [45]: 58.6 µM
- TGI [47]: 64.8 µM
- TGI [48]: > 100 µM
- TGI [50]: > 100 µM
- TGI [51]: > 100 µM
- TGI [52]: 43.5 µM
- TGI [53]: > 100 µM
- TGI [54]: 45.5 µM
- TGI [55]: > 100 µM
- TGI [56]: 62.8 µM
- TGI [57]: > 100 µM

Compound: CCOC(=O)OC1C(Br)C2CCC1(C)C2(C)C (centres undefined)
- TGI [1]: 28.8 µM
- TGI [3]: 30.1 µM
- TGI [4]: 29.2 µM
- TGI [5]: 31.3 µM
- TGI [7]: 17.3 µM
- TGI [8]: 26.2 µM
- TGI [9]: 33 µM
- TGI [10]: 29.4 µM
- TGI [11]: 25.1 µM
- TGI [12]: 20.9 µM
- TGI [13]: 27.5 µM
- TGI [14]: 20.1 µM
- TGI [15]: 31.2 µM
- TGI [16]: 27.6 µM
- TGI [17]: 32.5 µM
- TGI [18]: 18.6 µM
- TGI [19]: 32.8 µM
- TGI [20]: 20.1 µM
- TGI [21]: 28.4 µM
- TGI [22]: 18.9 µM
- TGI [23]: 25.6 µM
- TGI [24]: 31.3 µM
- TGI [25]: 31.3 µM
- TGI [26]: 24.9 µM
- TGI [27]: 23.6 µM
- TGI [28]: 28.5 µM
- TGI [29]: 16.6 µM
- TGI [58]: 28.1 µM
- TGI [30]: 31.9 µM
- TGI [31]: 16.6 µM
- TGI [32]: 30.2 µM
- TGI [33]: 32.7 µM
- TGI [34]: 28.8 µM
- TGI [59]: 25.1 µM
- TGI [35]: 31.7 µM
- TGI [36]: 31.7 µM
- TGI [37]: 23.6 µM
- TGI [38]: 20.7 µM
- TGI [39]: 25.1 µM
- TGI [40]: 29.6 µM
- TGI [41]: 29.5 µM
- TGI [42]: 28 µM
- TGI [44]: 29.3 µM
- TGI [45]: 27.6 µM
- TGI [46]: 29.5 µM
- TGI [47]: 28.1 µM
- TGI [48]: 28.3 µM
- TGI [49]: 24.6 µM
- TGI [50]: 5.83 µM
- TGI [51]: 30.8 µM
- TGI [52]: 30.3 µM
- TGI [53]: 27.8 µM
- TGI [54]: 26.6 µM
- TGI [55]: 29.5 µM
- TGI [56]: 32.1 µM
- TGI [57]: 24.6 µM
